Reference: paper PMC4277420, “Assessment of [^125I]WYE-230949 as a Novel Histamine H3 Receptor Radiopharmaceutical” (PLoS ONE, 2014)
Like-named read-outs stand apart in the source and are kept apart here.

Tests used:
[1] = cited from earlier work
[2] = cited from earlier work; remark: listed apart in the source
[3] = parameters: method as in PMID 19910432; details: porcine brain, 20 min post injection; cited from earlier work
[4] = molecular target: T1, rat histamine H3 receptor (Rattus norvegicus, UniProt Q9QYN8); details: rat striatum; cited from earlier work
T1 construct: from tissue; host or cells: whole brain of male Sprague-Dawley rats, homogenate pellet

[5] = cited from earlier work; remark: listed apart in the source
[6] = molecular target: T1, rat histamine H3 receptor; test: In vitro saturation radioligand binding to rat brain homogenates; details: whole rat brain homogenates, one-site binding model, n = 8
Experimental: Animals (male Sprague-Dawley rats; Harlan, UK) were killed by cervical dislocation. Whole brains were immediately excised and placed into ice-cold Tris-HCl buffer (Tris […], pH 7.4; EDTA 5 mM), homogenised and centrifuged at approx 40,000 g for 10 min at 4°C (Beckman J2-21M/E). The pellet was resuspended in 25 ml of buffer and centrifuged as previously, then the final pellet was resuspended in 10 ml of ice cold Tris buffer and stored at −50°C until required. Protein content was analysed using Bio-Rad reagent; absorbance was read on a spectrophotometer at 562 nm. [^125I]WYE230949 binding assays were carried out in a final incubation volume of 500 µl containing Tris-HCl buffer (Tris […], pH 7.4; EDTA 5 mM), brain homogenates (1.47 to 2.27 mg/ml of protein) and [^125I]WYE230949 (0.04–102 nM). Non-specific binding was defined in the presence of 10 µM iodophenpropit. Samples were incubated at 30°C for 30 min, then filtered rapidly through Whatman GF/B filters (pre-treated with 0.3% polyethylenimine; Aldrich, UK) using a Brandel M24R cell harvester and the filters washed with 3×4 ml ice-cold Tris buffer. Radioactivity on the filters was determined by liquid scintillation counting a minimum of 48 h after filtration. All assays were performed in triplicate. Specific binding was determined by subtracting non-specific binding from total binding at each concentration; Kd and Bmax values derived using GraphPad Prism (version 4.03), and expressed as mean ±SEM of the triplicate assays.

[7] = molecular target: rat histamine H3 receptors; parameters: method as in earlier work; details: rat histamine H3 receptor; cited from earlier work
[8] = molecular target: human histamine H3 receptors; parameters: method as in earlier work; details: human histamine H3 receptor; cited from earlier work
[9] = parameters: method as in PMID 16934699, PMID 17998102; details: cited from earlier work
[10] = parameters: method as in PMID 16934699; details: rats, 5 min post injection; cited from earlier work

T1 sequence (Q9QYN8 whole entry): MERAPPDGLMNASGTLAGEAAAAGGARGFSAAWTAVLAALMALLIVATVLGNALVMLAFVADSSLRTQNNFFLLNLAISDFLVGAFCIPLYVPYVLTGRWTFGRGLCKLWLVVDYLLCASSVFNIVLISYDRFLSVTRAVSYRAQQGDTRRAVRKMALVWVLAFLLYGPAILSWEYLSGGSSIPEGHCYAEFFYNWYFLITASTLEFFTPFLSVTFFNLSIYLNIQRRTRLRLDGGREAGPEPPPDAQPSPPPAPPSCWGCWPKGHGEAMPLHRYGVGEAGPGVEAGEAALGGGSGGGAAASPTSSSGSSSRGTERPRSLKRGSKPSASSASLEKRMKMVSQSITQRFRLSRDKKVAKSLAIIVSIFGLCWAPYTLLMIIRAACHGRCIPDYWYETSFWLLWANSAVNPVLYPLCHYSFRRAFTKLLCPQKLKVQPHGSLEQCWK

[11CH3]NC(=O)c1ccc(Oc2ccc3c(c2)CCN(C2CCC2)CC3)nc1 [[^11C]GSK189254]
LogD [1]: 1.7 | parent remaining in plasma ([2]; 30 minutes post injection): 58% | parent remaining in plasma ([2]; after 90 min): 55% | brain uptake [3]: 9.0 %ID/L

[123I]c1ccc(COCCCc2cnc[nH]2)cc1 [[^123I]iodoproxyfan]
Bmax [4]: 78 fmol/mg of protein | peak brain uptake [5]: ~1.5 %ID/g

O=C(c1ccc(Cn2cnc3cccc(I)c32)cc1)N1CC[C@H](N2CCCC2)C1 [[^125I]WYE-230949]
Kd [6]: 6.9 nM

O=C(c1ccc(Cn2cnc3cccc(I)c32)cc1)N1CC[C@H](N2CCCC2)C1 [WYE-230949]
Ki [7]: 5.7 nM | Ki [8]: 0.3 nM

[18F]c1ccc(COCCCc2cnc[nH]2)cc1 [[^18F]fluoroproxyfan]
parent remaining in the brain ([9]; 30 min post injection): 94% | parent remaining in the brain ([9]; 120 min post injection): 68% | parent remaining in plasma ([2]; 30 minutes post injection): 43%

C(#Cc1cccc([11CH2]N2CCOCC2)c1)CCN1CCCCC1 [[^11C]JNJ-10181457, 4-[3-(4-piperidin-1-yl-but-1-ynyl)-[^11C]benzyl]-morpholine]
parent remaining in the brain ([9]; 30 min post injection): greater than 80% | brain uptake [10]: 1.38 %ID/g
